Active and inactive are the calls of the source.
Columns and labels:
Assay type in all cases: functional
[1] = target: T1, Sentrin-specific protease 8 (Homo sapiens, UniProt Q96LD8)
T1 sequence (Q96LD8 whole entry): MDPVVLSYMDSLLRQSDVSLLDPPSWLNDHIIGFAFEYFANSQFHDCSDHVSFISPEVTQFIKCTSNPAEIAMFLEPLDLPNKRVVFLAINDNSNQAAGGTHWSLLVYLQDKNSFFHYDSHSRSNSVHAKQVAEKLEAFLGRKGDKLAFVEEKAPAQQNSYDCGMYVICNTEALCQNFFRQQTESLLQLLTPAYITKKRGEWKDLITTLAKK

[2] = target: T1, Sentrin-specific protease 8; remark: listed apart in the source
H4 = assay: Luminescence Cell-Based Dose Response HTS to Identify Activators of 5'UTR Stem-Loop Driven Prion Protein mRNA Translation in H4 Neuroglioblastoma Cells. [Related pubchem assays: 1829 (Project Summary), 1814 (Primary HTS)]; details: Homo sapiens
[3] = target: T1, Sentrin-specific protease 8; remark: listed apart in the source
[4] = target: T2, Apoptotic protease-activating factor 1 (Homo sapiens, UniProt O14727)
T2 sequence (O14727 whole entry): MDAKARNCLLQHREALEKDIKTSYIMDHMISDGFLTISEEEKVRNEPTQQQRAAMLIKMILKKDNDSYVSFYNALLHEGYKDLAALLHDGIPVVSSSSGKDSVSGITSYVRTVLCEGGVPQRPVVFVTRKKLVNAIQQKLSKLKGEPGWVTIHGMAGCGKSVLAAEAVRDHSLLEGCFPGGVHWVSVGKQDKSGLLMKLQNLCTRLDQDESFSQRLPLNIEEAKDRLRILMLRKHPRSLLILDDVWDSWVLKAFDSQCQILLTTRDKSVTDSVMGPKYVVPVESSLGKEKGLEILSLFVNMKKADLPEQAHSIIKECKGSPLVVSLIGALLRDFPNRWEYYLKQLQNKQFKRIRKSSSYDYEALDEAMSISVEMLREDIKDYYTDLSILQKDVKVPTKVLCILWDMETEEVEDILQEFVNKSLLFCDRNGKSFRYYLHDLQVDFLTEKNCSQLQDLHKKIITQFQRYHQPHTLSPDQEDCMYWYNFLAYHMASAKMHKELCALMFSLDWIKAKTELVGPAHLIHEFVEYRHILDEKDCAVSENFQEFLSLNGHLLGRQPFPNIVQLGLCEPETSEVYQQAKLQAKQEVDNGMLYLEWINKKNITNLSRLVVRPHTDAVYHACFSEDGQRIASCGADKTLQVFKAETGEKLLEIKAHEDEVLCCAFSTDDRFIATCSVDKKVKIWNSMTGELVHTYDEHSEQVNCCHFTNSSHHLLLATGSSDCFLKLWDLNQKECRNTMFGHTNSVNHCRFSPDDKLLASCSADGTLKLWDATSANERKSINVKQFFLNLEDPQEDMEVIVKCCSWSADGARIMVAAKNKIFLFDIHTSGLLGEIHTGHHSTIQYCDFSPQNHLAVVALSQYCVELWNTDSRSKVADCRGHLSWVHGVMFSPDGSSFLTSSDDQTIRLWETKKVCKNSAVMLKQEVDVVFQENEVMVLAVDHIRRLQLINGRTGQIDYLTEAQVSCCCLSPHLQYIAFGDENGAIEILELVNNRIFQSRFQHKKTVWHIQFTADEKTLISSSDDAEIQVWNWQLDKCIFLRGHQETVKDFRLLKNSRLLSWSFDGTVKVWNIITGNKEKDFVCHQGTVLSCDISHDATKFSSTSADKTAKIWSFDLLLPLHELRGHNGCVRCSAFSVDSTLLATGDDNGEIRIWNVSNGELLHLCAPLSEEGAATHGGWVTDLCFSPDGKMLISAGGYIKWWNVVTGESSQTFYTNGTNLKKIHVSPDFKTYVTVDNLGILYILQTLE

[5] = target: Tyrosine-protein kinase Lck (Homo sapiens, UniProt P06239);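 further: lck was assayed as one member of a kinase panel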
[6] = target: High affinity nerve growth factor receptor (Homo sapiens, UniProt P04629);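 further: NTRK1 tested as one member of a kinome-wide profiling panel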
[7] = target: Protein kinase C iota type (Homo sapiens, UniProt P41743);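 further: measured within a kinome-wide kinase panel, PRKCI as panel member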
[8] = target: Cyclin-dependent kinase 1 (Homo sapiens, UniProt P06493);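 further: Kinome-wide panel profiling, with the target listed as panel member CDC2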
[9] = target: Tyrosine-protein kinase ITK/TSK (Homo sapiens, UniProt Q08881);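 further: affinity for ITK measured as one member of a broad kinase panel profiling binding across the kinome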
[10] = target: Serine/threonine-protein kinase Chk2 (Homo sapiens, UniProt O96017);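 further: CHEK2 entry within a kinome-wide screening panel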
[11] = target: Cell division cycle 7-related protein kinase (Homo sapiens, UniProt O00311);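 further: value obtained from a kinome-wide kinase panel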
[12] = target: cGMP-dependent protein kinase 1 (Homo sapiens, UniProt Q13976);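 further: value from a kinome panel screen with PRKG1 as the panel member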
[13] = target: Phosphorylase b kinase gamma catalytic chain, liver/testis isoform (Homo sapiens, UniProt P15735);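 further: PHKG2 measured as one member of a kinome-wide kinase panel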
[14] = target: Mitogen-activated protein kinase kinase kinase kinase 5 (Homo sapiens, UniProt Q9Y4K4);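 further: measured as one member of a kinome-spanning kinase panel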
[15] = target: Serine/threonine-protein kinase PLK4 (Homo sapiens, UniProt O00444);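 further: PLK4 measured as one member of a kinome-wide kinase profiling panel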
[16] = target: RAC-gamma serine/threonine-protein kinase (Homo sapiens, UniProt Q9Y243)
[17] = target: Maternal embryonic leucine zipper kinase (Homo sapiens, UniProt Q14680)
[18] = target: Ribosomal protein S6 kinase beta-1 (Homo sapiens, UniProt P23443);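 further: measured as one member of a kinome-wide profiling panel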
[19] = target: Mitogen-activated protein kinase 12 (Homo sapiens, UniProt P53778);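 further: measured as one member of a kinome-wide kinase profiling panel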
[20] = target: MAP kinase-interacting serine/threonine-protein kinase 2 (Homo sapiens, UniProt Q9HBH9)
[21] = target: Protein kinase C delta type (Homo sapiens, UniProt Q05655)
[22] = target: Serine/threonine-protein kinase 17A (Homo sapiens, UniProt Q9UEE5)
[23] = target: Serine/threonine-protein kinase D2 (Homo sapiens, UniProt Q9BZL6);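 further: measured against PRKD2 as one member of a kinome-wide kinase profiling panel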
[24] = target: Protein kinase C zeta type (Homo sapiens, UniProt Q05513);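 further: measured as one member of a broad kinase profiling panel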
[25] = target: Mitogen-activated protein kinase 13 (Homo sapiens, UniProt O15264)
Sequence of Mitogen-activated protein kinase 13 (O15264 whole entry): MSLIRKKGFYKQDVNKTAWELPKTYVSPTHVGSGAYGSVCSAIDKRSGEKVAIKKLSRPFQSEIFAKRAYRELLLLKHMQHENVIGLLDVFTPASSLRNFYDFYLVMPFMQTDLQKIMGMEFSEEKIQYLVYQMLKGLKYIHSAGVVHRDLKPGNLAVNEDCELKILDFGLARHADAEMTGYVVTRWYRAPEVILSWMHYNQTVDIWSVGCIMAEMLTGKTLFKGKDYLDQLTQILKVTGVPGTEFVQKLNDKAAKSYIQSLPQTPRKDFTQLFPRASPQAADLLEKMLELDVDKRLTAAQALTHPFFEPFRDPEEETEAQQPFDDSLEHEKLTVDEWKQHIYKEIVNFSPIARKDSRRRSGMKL

Sequence of RAC-gamma serine/threonine-protein kinase (Q9Y243 whole entry): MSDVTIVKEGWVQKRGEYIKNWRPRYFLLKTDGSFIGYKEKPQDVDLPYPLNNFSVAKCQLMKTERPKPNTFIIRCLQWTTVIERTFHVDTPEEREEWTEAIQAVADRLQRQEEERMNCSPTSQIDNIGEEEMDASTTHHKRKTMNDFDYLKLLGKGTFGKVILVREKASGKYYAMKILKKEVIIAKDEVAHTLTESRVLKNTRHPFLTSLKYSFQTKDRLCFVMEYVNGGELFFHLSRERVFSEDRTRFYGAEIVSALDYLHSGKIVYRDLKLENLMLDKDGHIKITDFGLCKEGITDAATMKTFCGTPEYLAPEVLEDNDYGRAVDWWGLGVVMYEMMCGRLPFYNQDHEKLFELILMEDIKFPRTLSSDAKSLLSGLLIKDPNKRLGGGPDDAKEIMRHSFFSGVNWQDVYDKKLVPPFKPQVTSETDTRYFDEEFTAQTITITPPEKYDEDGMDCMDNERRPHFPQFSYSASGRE
Sequence of Serine/threonine-protein kinase 17A (Q9UEE5 whole entry): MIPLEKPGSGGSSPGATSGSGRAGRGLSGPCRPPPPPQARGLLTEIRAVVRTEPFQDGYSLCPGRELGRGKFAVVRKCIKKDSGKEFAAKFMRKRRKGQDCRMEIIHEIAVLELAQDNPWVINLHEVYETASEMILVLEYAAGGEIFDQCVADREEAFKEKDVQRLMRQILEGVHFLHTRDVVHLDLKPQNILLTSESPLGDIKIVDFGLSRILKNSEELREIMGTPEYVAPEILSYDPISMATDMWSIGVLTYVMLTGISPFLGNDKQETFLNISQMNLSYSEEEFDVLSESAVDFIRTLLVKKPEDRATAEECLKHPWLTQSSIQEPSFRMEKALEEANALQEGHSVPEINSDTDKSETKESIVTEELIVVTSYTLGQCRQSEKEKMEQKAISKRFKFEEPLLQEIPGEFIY
Sequence of Tyrosine-protein kinase Lck (P06239 whole entry): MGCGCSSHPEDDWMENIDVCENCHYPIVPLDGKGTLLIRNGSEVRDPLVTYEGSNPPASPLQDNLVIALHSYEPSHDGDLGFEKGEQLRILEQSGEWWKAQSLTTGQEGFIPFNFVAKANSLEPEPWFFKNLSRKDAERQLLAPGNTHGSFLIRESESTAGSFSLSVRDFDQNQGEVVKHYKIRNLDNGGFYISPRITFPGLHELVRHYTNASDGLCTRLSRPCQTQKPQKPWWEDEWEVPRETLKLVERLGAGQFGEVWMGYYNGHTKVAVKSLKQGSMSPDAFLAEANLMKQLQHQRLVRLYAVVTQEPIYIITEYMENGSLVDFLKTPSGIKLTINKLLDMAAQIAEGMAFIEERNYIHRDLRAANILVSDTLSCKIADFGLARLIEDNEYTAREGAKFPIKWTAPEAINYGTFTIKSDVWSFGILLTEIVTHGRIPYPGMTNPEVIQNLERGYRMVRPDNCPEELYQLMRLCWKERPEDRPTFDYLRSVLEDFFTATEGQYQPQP
Sequence of Tyrosine-protein kinase ITK/TSK (Q08881 whole entry): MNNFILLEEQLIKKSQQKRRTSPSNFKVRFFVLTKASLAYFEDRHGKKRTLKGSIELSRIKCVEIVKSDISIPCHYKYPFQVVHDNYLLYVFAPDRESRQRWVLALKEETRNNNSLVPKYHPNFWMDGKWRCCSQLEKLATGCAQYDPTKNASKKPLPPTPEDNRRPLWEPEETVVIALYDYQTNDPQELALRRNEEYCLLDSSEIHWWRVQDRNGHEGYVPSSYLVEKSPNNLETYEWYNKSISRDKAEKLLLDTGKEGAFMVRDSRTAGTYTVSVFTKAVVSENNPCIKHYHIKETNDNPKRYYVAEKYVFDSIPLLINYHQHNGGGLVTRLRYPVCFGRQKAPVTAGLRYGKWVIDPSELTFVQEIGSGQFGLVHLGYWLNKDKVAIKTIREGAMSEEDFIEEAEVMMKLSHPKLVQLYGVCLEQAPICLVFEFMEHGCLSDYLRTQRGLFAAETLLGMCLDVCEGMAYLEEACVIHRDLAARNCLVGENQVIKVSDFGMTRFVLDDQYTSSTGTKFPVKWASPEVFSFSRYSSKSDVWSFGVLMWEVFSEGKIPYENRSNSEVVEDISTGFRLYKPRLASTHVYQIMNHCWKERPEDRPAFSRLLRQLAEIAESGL
Sequence of Mitogen-activated protein kinase kinase kinase kinase 5 (Q9Y4K4 whole entry): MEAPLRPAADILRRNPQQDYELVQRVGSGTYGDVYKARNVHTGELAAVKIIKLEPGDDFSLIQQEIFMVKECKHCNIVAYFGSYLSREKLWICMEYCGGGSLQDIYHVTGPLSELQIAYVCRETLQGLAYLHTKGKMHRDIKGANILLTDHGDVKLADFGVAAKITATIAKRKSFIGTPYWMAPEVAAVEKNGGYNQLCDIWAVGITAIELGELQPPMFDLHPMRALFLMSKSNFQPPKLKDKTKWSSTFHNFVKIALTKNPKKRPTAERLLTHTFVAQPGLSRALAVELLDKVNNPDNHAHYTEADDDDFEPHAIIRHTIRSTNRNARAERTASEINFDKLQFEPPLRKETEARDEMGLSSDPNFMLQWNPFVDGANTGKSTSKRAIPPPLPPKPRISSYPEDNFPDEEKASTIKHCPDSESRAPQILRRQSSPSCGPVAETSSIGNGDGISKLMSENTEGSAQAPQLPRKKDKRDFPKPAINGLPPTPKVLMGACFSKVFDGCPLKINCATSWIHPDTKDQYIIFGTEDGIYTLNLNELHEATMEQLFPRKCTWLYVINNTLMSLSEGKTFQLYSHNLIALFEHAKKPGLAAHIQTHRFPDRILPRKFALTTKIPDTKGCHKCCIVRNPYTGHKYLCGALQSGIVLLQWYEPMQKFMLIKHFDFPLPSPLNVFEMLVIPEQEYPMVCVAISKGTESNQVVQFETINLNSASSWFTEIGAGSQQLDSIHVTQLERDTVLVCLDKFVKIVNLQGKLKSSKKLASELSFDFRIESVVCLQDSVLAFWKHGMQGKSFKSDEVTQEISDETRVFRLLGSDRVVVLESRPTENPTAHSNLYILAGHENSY
Sequence of Cyclin-dependent kinase 1 (P06493 whole entry): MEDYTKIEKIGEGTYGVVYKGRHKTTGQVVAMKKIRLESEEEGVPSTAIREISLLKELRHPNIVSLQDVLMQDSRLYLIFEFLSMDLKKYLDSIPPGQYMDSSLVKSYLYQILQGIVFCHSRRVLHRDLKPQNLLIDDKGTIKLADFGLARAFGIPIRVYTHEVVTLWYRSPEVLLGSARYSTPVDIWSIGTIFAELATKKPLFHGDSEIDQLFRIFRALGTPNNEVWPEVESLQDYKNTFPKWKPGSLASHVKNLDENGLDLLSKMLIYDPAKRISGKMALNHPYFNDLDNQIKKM
Sequence of Serine/threonine-protein kinase PLK4 (O00444 whole entry): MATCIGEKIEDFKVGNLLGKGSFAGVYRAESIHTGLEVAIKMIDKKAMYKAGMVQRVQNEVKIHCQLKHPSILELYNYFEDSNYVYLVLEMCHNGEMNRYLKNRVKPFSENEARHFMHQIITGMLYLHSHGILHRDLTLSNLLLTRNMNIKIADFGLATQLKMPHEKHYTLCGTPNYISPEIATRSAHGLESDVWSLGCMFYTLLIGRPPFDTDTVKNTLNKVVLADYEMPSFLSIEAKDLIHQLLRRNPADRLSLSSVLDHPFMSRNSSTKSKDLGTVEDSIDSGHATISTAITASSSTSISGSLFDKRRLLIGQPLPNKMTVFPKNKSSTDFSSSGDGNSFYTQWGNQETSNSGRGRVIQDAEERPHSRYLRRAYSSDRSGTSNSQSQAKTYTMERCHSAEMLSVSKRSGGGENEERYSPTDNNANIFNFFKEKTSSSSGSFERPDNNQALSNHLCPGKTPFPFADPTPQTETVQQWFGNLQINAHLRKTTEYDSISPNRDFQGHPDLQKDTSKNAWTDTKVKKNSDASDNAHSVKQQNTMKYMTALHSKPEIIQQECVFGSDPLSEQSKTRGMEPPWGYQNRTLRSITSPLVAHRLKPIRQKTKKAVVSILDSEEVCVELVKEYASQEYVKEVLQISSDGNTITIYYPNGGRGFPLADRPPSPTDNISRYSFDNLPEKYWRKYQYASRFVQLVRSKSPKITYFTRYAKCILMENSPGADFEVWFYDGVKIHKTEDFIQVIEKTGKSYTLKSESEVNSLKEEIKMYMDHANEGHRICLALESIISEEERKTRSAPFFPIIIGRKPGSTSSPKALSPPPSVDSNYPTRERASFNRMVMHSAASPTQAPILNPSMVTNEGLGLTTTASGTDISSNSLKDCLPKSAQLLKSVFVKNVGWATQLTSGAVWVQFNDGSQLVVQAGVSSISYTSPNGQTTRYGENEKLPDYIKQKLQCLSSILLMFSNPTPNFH
Sequence of Mitogen-activated protein kinase 12 (P53778 whole entry): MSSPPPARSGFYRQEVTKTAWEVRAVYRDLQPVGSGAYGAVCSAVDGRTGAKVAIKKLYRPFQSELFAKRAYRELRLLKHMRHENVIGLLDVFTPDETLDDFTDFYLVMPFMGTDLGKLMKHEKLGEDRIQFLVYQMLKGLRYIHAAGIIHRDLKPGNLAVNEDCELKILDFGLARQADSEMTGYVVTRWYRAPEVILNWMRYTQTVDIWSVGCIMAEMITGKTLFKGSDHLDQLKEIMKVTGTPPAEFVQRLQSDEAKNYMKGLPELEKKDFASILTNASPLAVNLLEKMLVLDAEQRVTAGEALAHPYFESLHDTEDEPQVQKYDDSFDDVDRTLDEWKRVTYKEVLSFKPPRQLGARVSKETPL

Q: With O=C1C2=[N+]([O-])[C@H]3CCCC[C@H]3[N+]([O-])=C2c2ccccc21 as the compound, how does the IC50 [1] read?
A: 21500 nM (active)

Q: What about the IC50 [2] of the same compound?
A: 2680 nM (active)

Q: And the EC50 (H4)?
A: 23500 nM (active)

Q: And the IC50 [3]?
A: 5980 nM (active)

Q: What about the IC50 [4] of the same compound?
A: 18100 nM (active)

Q: With OCc1cc(-c2ccc3[nH]ncc3c2)on1 as the compound, how does the Ki [5] read?
A: 100000 nM (active)

Q: CC(C)(O)c1cn(-c2ccc3[nH]ncc3c2)nn1 was tested. Which Ki [6] did it give?
A: 79400 nM (active)

Q: With NC1CCC(Nc2nccc(-c3c[nH]c4ncccc34)n2)CC1 (stereo unspecified) as the compound, how does the Ki [7] read?
A: 31.6 nM (active)

Q: What about the Ki [8] of the same compound?
A: 6.31 nM (active)

Q: And the Ki [9]?
A: 631 nM (active)

Q: What about the Ki [10] of the same compound?
A: > 1580 nM (inactive)

Q: What about the Ki [11] of the same compound?
A: 5.01 nM (active)

Q: And the Ki [12]?
A: 100 nM (active)

Q: And the Ki [13]?
A: 100 nM (active)

Q: And the Ki [14]?
A: 25.1 nM (active)

Q: What about the Ki [15] of the same compound?
A: > 3980 nM (inactive)

Q: And the Ki [16]?
A: 631 nM (active)

Q: And the Ki [17]?
A: 126 nM (active)

Q: And the Ki [18]?
A: 501 nM (active)

Q: And the Ki [19]?
A: 794 nM (active)

Q: And the Ki [20]?
A: 251 nM (active)

Q: What about the Ki [21] of the same compound?
A: 3.16 nM (active)

Q: What about the Ki [22] of the same compound?
A: 31.6 nM (active)

Q: What about the Ki [23] of the same compound?
A: 25.1 nM (active)

Q: How did the Ki [24] turn out when COC(C(=O)N1Cc2[nH]nc(NC(=O)c3ccc(N4CCN(C)CC4)cc3)c2C1)c1ccccc1 (stereo unspecified) was run?
A: > 7940 nM (inactive)

Q: What about the Ki [25] of the same compound?
A: > 7940 nM (inactive)

Reference: ChEMBL document CHEMBL1201862, “PubChem BioAssay data set” (2004)
